Three molecules from ChEMBL document CHEMBL1149719, “Psammaplysin C: a new cytotoxic dibromotyrosine-derived metabolite from the marine sponge Druinella (= Psammaplysilla) purpurea” (J Nat Prod, 1992) can be followed below.

Molecules are shown by their SMILES. Values after ≈ are worked out from the molar mass of the structure shown.

The test system of this test is HCT-116. The experiment in a line: Cytotoxicity against human HCT116 cells. It counts as functional, cell-based.
`COC1=C(Br)C[C@]2(OC=C1Br)ON=C(C(=O)NCCCOc1c(Br)cc(CCN)cc1Br)[C@@H]2O` [PSAMMAPLYSIN A]: the IC50 was determined as 6 mg/L (≈ 8.19 µM). `COC1=C(Br)C[C@]2(OC=C1Br)ON=C(C(=O)NCCCOc1c(Br)cc(C(O)CN)cc1Br)[C@@H]2O` (stereo partly drawn) [PSAMMAPLYSIN B] registered an IC50 of 6 mg/L (≈ 8.01 µM). The same measure for `CNCC(O)c1cc(Br)c(OCCCNC(=O)C2=NO[C@@]3(CC(Br)=C(OC)C(Br)=CO3)[C@H]2O)c(Br)c1` (stereo partly drawn) [PSAMMAPLYSIN C]: 3 mg/L (≈ 3.93 µM).

The IC50 is the point on the concentration scale where inhibition reaches its midpoint. Higher therefore signals weaker potency in that assay.
